The subject of one data set is Pancreatin. The data set can be described thus: Protease stability in simulated intestinal fluid (Pancreatin-SIF, FaSSIF). The following applies: 1 μM peptide, 37° C.; for remaining at 1 h, 1 µM: 60 min, read-out: FaSSIF 60 (min), remaining percent of peptide; for remaining at 2 h, 1 µM: 120 min, read-out: FaSSIF 120 (min), remaining percent of peptide; for remaining at 4 h, 1 µM: 240 min, read-out: FaSSIF 240 (min), remaining percent of peptide. The class given is in vitro ADME. The procedure:
(§1) Studies were carried out in simulated intestinal fluid (SIF) and simulated gastric fluid (SGF) to evaluate gastric stability of the peptide compounds disclosed herein.
Similarly, the term “Pancreatin-SIF” refers to a solution of simulated intestinal fluid containing pancreatin whereas “SIF-media” refers to a solution of simulated intestinal fluid without pancreatin.
Pancreatin-SIF was prepared by dissolving 1 mg Pancreatin (MP Biomedicals) in 10 mL SIF media concentrate (ProSense).
(§2) Peptides were first dissolved at 1 mM stock concentration in 0.01 HCl (+/−10% of DMSO) and were than diluted further with water to a stock concentration of 20 μM. Final peptide concentration in the incubation was 1 μM.
(§3) To 76 μL of the Pepsin-SGF buffer, 4 μL of the 20 µM peptide stock solution was added and incubated at 37° C. At each timepoint (0, 60, 120 and 240 minutes) the reaction was quenched with addition of 80 μL Ethanol (0.1% HCOOH). The samples were centrifuged for 20 minutes and an aliquot of the supernatant 100 μL were transferred to a LoBind-MTP plate and analyzed by LCMS/MS. The peak area response was calculated at each time point for each test compound. As internal reference, the peak area response of the same test compound at TO was calculated. The percent remaining at each timepoint was calculated based on the peak area response ratio of the test compound at TO. Time 0 was set to 100%, and all later timepoints were calculated relative to time 0.

Data set [1] relates to IL-23 induced STAT3 signaling in HEK-Blue™ IL-23 cells. In words: IL-23 induced STAT3 signaling in HEK-Blue IL-23 cells (SEAP reporter). It is filed as cell-based. As to conditions: human IL23 0.25 ng/ml, read-out: pSTAT3. In a few lines: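 Secreted SEAP, read at OD 620-655 nm after 45 min QUANTI-Blue development, reports STAT3 activation. Beforehand, cells were exposed to peptide dilutions for 60 min at 37 °C and then to 0.25 ng/ml final human IL-23 overnight, at 10,000 cells/well.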

Data set [2] addresses T1, human interleukin-23 receptor (recombinant human IL-23R-Fc chimera) (Homo sapiens, UniProt Q5VWK5).
T1 construct: Fc (IgG Fc fusion)
The data set can be described thus: Human ELISA IL23/IL23R (assay for specific human IL23R antagonists). As to conditions: Table 10; read-out: Human ELISA IL23/IL23R IC50. It is filed as binding. In a few lines: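 Competition format: peptide dilutions compete for IL23R-Fc chimera (0.1 μg/ml final, 60 min, room temperature) binding to immobilized human IL23 coated at […] overnight at 4 °C. Read-out is fluorogenic HRP signal from goat anti-hu-IgG1 detecting captured receptor.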

The next data set has as its system T2, Pepsin.
T2 construct: purchased Merck Millipore
The data set can be described thus: Protease stability in simulated gastric fluid (Pepsin-SGF, FaSSGF). The class given is in vitro ADME. As to conditions: simulated gastric fluid with pepsin (Pepsin-SGF), 60 min, 1 μM peptide, 37° C., read-out: FaSSGF 60 (min), remaining percent of peptide. The procedure: as §1
For clarification the term “Pepsin-SGF” refers to a solution of simulated gastric fluid containing pepsin whereas “SGF media” refers to a solution of simulated gastric fluid without pepsin. Pepsin-SGF was prepared by dissolving 320 mg Pepsin (Merck Millipore) in 100 mL SGF media concentrate (ProSense).
as §2
as §3, with “μM” for “µM”

SMILES strings stand for the structures. Starred links: 1 amine or outer side, 2 acyl side, 3 side chain; linkers in the order of their positions; H or OH if unused. Positions of bridges follow the written chain, without caps; N, C: chain ends. Non-standard residues stand in square brackets, D forms with d. Residues, ends and D or L forms follow the SMILES beside them. Groups on a side chain read outwards from the residue. *: point of attachment. Trp(7-Me) = Cc1cccc2c(C[C@H](N)C(=O)O)c[nH]c12; X1 = O=C(CCCCN[*:3])N[C@@H](CS[*:2])C(=O)[*:1]; Trp(1-Me) = Cn1cc(C[C@H](N)C(=O)O)c2ccccc21; C18 diacid = O=C(O)CCCCCCCCCCCCCCCCC(=O)*; αMeLys(Me2) = CN(C)CCCC[C@](C)(N)C(=O)O; γGlu = O=C(O)[C@H](CCC(=O)[*:2])N[*:1]; 2Nal = N[C@@H](Cc1ccc2ccccc2c1)C(=O)O; d2Nal = N[C@H](Cc1ccc2ccccc2c1)C(=O)O; NMe5Ava = CN(CCCCC(=O)[*:2])[*:1]; 3Pal = N[C@@H](Cc1cccnc1)C(=O)O; Lys(Me) = CNCCCC[C@H](N)C(=O)O; αMeL = CC(C)C[C@](C)(N)C(=O)O; Suc = O=C(CCC(=O)[*:2])[*:1]; Thp = NC1(C(=O)O)CCOCC1; AEEA = NCCOCCOCC(=O)O; Me2NCH2CH2 = CN(C)CC*; Aib = CC(C)(N)C(=O)O; Ava = NCCCCC(=O)O; Sar = CNCC(=O)O

For `CC(=O)NCCCC[C@@H]1NC(=O)[C@H](Cc2c[nH]c3c(C)cccc23)NC(=O)[C@H]([C@@H](C)O)NC(=O)[C@H](CC(N)=O)NC(=O)[C@@H]2CSSC[C@H](NC1=O)C(=O)N[C@@H](Cc1ccc(OCCN(C)C)cc1)C(=O)N[C@@H](Cc1ccc3ccccc3c1)C(=O)N[C@@](C)(CCCCN(C)C)C(=O)N[C@H](C(=O)N[C@@H](CC(N)=O)C(=O)N[C@@H](Cc1cccnc1)C(=O)N(C)CC(N)=O)CCCCN(C)C(=O)CCC(=O)N2` [compound 156] (CNT[Trp(7-Me)]K(Ac)CY(Me2NCH2CH2)[2Nal][αMeLys(Me2)][Lys(Me)]N[3Pal][Sar]-NH2; disulfide 1-6; linker N-10 via Suc), the share remaining at 1 h, 1 µM was 99% with Pancreatin and 100% in the data set with Pepsin. For the same compound, in the data set on Pancreatin, the amount remaining at 2 h, 1 µM is 99%. For the same compound, the amount remaining at 4 h, 1 µM in the data set with Pancreatin was 97%. The results for the IC50 in data set [1] and in data set [2] were 0.08 nM and 0.61 nM, respectively.

Consider `CC(=O)NCCCC[C@@H]1NC(=O)[C@H](Cc2cn(C)c3ccccc23)NC(=O)[C@@H](NC(C)=O)CCCCNC(=O)[C@@H]2CSSC[C@H](NC1=O)C(=O)N[C@@H](Cc1ccc(OCCN(C)C)cc1)C(=O)N[C@@H](Cc1ccc3ccccc3c1)C(=O)NC1(CCOCC1)C(=O)N[C@H](C(=O)N[C@@H](CC(N)=O)C(=O)N[C@@H](Cc1cccnc1)C(=O)N(C)CC(N)=O)CCC(=O)NCCCCC(=O)N2` [compound 126] (Ac-K[Trp(1-Me)]K(Ac)CY(Me2NCH2CH2)[2Nal][Thp]EN[3Pal][Sar]-NH2; linker 1-4-8 via X1), for which, in the data set with Pancreatin, the amount remaining at 1 h, 1 µM was 90%; the amount remaining at 2 h, 1 µM is 87%; the amount remaining at 4 h, 1 µM is 83%. In addition, the IC50 in data set [1] was found to be 0.11 nM. Besides, in data set [2], the IC50 was found to be 0.56 nM. The amount remaining at 1 h, 1 µM in the data set with Pepsin was 80%.

`CC(=O)NCCCC[C@@H]1NC(=O)[C@H](Cc2c[nH]c3c(C)cccc23)NC(=O)[C@H]([C@@H](C)O)NC(=O)[C@H](CC(N)=O)NC(=O)[C@@H]2CSSC[C@H](NC1=O)C(=O)N[C@@H](Cc1ccc(OCCN(C)C)cc1)C(=O)N[C@@H](Cc1ccc3ccccc3c1)C(=O)NC(C)(C)C(=O)N[C@H](C(=O)N[C@@H](CC(N)=O)C(=O)N[C@@H](Cc1cccnc1)C(=O)N(C)CC(N)=O)CCCCNC(=O)CCC(=O)N2` [compound 157] (CNT[Trp(7-Me)]K(Ac)CY(Me2NCH2CH2)[2Nal][Aib]KN[3Pal][Sar]-NH2; disulfide 1-6; linker N-10 via Suc): in the data set on Pancreatin, the amount remaining at 1 h, 1 µM is 80%; the fraction remaining at 2 h, 1 µM was 78%; the amount remaining at 4 h, 1 µM was 74%. Also, the IC50 in data set [1] was 0.06 nM. In addition, the IC50 in data set [2] was 0.42 nM. Moreover, the fraction remaining at 1 h, 1 µM in the data set on Pepsin was 100%.

On to `CC(=O)NCCCC[C@@H]1NC(=O)[C@H](Cc2c[nH]c3c(C)cccc23)NC(=O)[C@H]([C@@H](C)O)NC(=O)[C@H](CC(N)=O)NC(=O)[C@@H]2CSSC[C@H](NC1=O)C(=O)N[C@@H](Cc1ccc(OCCN(C)C)cc1)C(=O)N[C@@H](Cc1ccc3ccccc3c1)C(=O)N[C@@](C)(CC(C)C)C(=O)N[C@H](C(=O)N[C@@H](CC(N)=O)C(=O)N[C@@H](Cc1c[nH]cn1)C(N)=O)CCC(=O)NCCCCC(=O)N2` [compound 22] ([Ava]CNT[Trp(7-Me)]K(Ac)CY(Me2NCH2CH2)[2Nal][αMeL]ENH-NH2; disulfide 2-7; lactam N-11), for which, in the data set on Pancreatin, the amount remaining at 1 h, 1 µM is 82%; the share remaining at 2 h, 1 µM is 79%; the share remaining at 4 h, 1 µM is 79%. Further, the IC50 in data set [1] worked out at 1.37 nM. In data set [2], the IC50 stood at 0.49 nM. The fraction remaining at 1 h, 1 µM in the data set on Pepsin was 60%.

As to `Cc1cccc2c(C[C@@H]3NC(=O)[C@H]([C@@H](C)O)NC(=O)[C@H](CC(N)=O)NC(=O)[C@@H]4CSSC[C@H](NC(=O)[C@H](CCC(N)=O)NC3=O)C(=O)N[C@@H](Cc3ccc(OCCN(C)C)cc3)C(=O)N[C@@H](Cc3ccc5ccccc5c3)C(=O)NC(C)(C)C(=O)N[C@H](C(=O)N[C@@H](CC(N)=O)C(=O)N[C@@H](Cc3cccnc3)C(=O)N(C)CC(N)=O)CCC(=O)NCCCCC(=O)N4)c[nH]c12` [compound 62] ([Ava]CNT[Trp(7-Me)]QCY(Me2NCH2CH2)[2Nal][Aib]EN[3Pal][Sar]-NH2; disulfide 2-7; lactam N-11), in the data set on Pancreatin, the share remaining at 1 h, 1 µM is 95%; the amount remaining at 2 h, 1 µM was 87%; the share remaining at 4 h, 1 µM is 84%. For the same compound, the IC50 in data set [1] was 0.2 nM. In addition, the IC50 in data set [2] amounted to 0.35 nM. Moreover, the share remaining at 1 h, 1 µM in the data set on Pepsin was 100%.

With `CC(C)C[C@]1(C)NC(=O)[C@H](Cc2ccc3ccccc3c2)NC(=O)[C@H](Cc2ccc(OCCN(C)C)cc2)NC(=O)[C@@H]2CSSC[C@H](NC(=O)CCCCN(C)C(=O)CC[C@@H](C(=O)N[C@@H](CC(N)=O)C(=O)N[C@@H](CC(N)=O)C(N)=O)NC1=O)C(=O)N[C@@H](CC(N)=O)C(=O)N[C@@H]([C@@H](C)O)C(=O)N[C@@H](Cc1c[nH]c3ccccc13)C(=O)N[C@@H](CCC(N)=O)C(=O)N2` [compound 41] ([NMe5Ava]CNTWQCY(Me2NCH2CH2)[2Nal][αMeL]ENN-NH2; disulfide 2-7; lactam N-11), in the data set on Pancreatin, the share remaining at 1 h, 1 µM was 83%; the fraction remaining at 2 h, 1 µM was 71%; the amount remaining at 4 h, 1 µM was 57%. Besides, the IC50 in data set [1] was 1.6 nM. Further, the IC50 in data set [2] is 0.35 nM. The fraction remaining at 1 h, 1 µM in the data set with Pepsin was 90%.

`CC(=O)NCCCC[C@@H]1NC(=O)[C@H](Cc2c[nH]c3c(C)cccc23)NC(=O)[C@@H](NC(C)=O)CCCCNC(=O)[C@@H]2CSSC[C@H](NC1=O)C(=O)N[C@@H](Cc1ccc(OCCN(C)C)cc1)C(=O)N[C@H](Cc1ccc3ccccc3c1)C(=O)N[C@@](C)(CCCCN(C)C)C(=O)N[C@H](C(=O)N[C@@H](CC(N)=O)C(=O)N[C@@H](Cc1cccnc1)C(=O)N(C)CC(N)=O)CCC(=O)NCCCCC(=O)N2` [compound 149] (Ac-K[Trp(7-Me)]K(Ac)CY(Me2NCH2CH2)[d2Nal][αMeLys(Me2)]EN[3Pal][Sar]-NH2; linker 1-4-8 via X1): the fraction remaining at 1 h, 1 µM in the data set on Pancreatin was 95%; in the data set on Pepsin, 101%. In the data set with Pancreatin, the fraction remaining at 2 h, 1 µM is 99%. Further, the fraction remaining at 4 h, 1 µM in the data set with Pancreatin is 97%. Also, the IC50 in data set [1] was found to be 0.04 nM; in data set [2] it was 0.64 nM.

Consider `Cc1cccc2c(C[C@@H]3NC(=O)[C@H]([C@@H](C)O)NC(=O)[C@H](CC(N)=O)NC(=O)[C@@H]4CSSC[C@H](NC(=O)[C@H](CCC(N)=O)NC3=O)C(=O)N[C@@H](Cc3ccc(OCCN(C)C)cc3)C(=O)N[C@@H](Cc3ccc5ccccc5c3)C(=O)NC(C)(C)C(=O)N[C@H](C(=O)N[C@@H](CC(N)=O)C(=O)N[C@@H](Cc3cccnc3)C(=O)N[C@@H](CCCCNC(=O)COCCOCCNC(=O)COCCOCCNC(=O)CC[C@H](NC(=O)CCCCCCCCCCCCCCCCC(=O)O)C(=O)O)C(N)=O)CCCCNC(=O)CCC(=O)N4)c[nH]c12` [compound 71] (CNT[Trp(7-Me)]QCY(Me2NCH2CH2)[2Nal][Aib]KN[3Pal]K([AEEA-AEEA-γGlu-C18 diacid])-NH2; disulfide 1-6; linker N-10 via Suc), for which the IC50 in data set [1] was determined as 2.35 nM; in data set [2], 0.31 nM. Moreover, the fraction remaining at 1 h, 1 µM in the data set with Pepsin is 76%.
